Experimental findings from patent US20260297060A1, “COMPOUNDS FOR THE DEGRADATION OF MUTANT BRAF” (C4 THERAPEUTICS, INC., priority 2023, published 2026) are described below.

Format in all cases: in vivo, BALB/c nude mice
Data set [1] in a line: Example 9 pharmacokinetics assay for efficacy study Part I and II (plasma, liver). The following applies: mouse, po, 100 mg/kg, p.o., QD × 14 days, 6 h following last treatment, ± SEM. On the procedure: (§1) For efficacy study Part I, agents were tested in the A375 human melanoma xenografts. Compound 218 and Compound 157 were administered to BALB/c nude mice bearing A375 xenografts from day 0 and dosed twice a day (BID) for 14 days. Compound 218 and Compound 157 were dosed at 10 mg/kg via p.o.. Dabrafenib was administered from day 1 daily (QD) for 14 days and dosed at 100 mg/kg via p.o..
For efficacy study Part II, agents were tested in the A375 human melanoma xenografts model. Compound 133, Compound 144 and Compound 198 were administered to BALB/c nude mice bearing A375 xenografts from day 0 and dosed twice a day (BID) for 14 days. Compound 133, Compound 144 and Compound 198 were dosed at 10 mg/kg via p.o..
(§2) The plasma samples were collected at predetermined time points for PK analysis. The mice were euthanized at predetermined time points post the treatment. The blood samples were collected into the 1.5 mL Eppendorf tubes containing 15 μL of 0.5 M EDTA-K2. And then the anticoagulant blood samples were centrifuged at 2,500 g at 4° C. for 15 minutes. The plasma samples were separated into 2 aliquots. The 1st was used for PK analysis, and the 2nd served as backup. The samples were stored at −80° C. before bioanalysis.
(§3) Liver samples were collected at predetermined time points for PK analysis. The left lobe of the liver was dissected out and split into 2 parts. The 1st part was used for PK analysis and the 2nd part served as the backup for the study. The samples were transferred into pre-labeled tubes and quickly froze in liquid nitrogen within 2 minutes after dissection. The samples were stored at −80° C. before bioanalysis.
The harvested plasma and liver samples were processed for pharmacokinetics analysis by LC-MS/MS with a concentration range of 1.00-1,000 ng/mL for Dabrafenib in plasma and liver homogenate, 10.0-10,000 ng/mL for Compound 218, Compound 157, Compound 133, Compound 144 and Compound 198 in plasma and liver homogenate.

Data set [2] has as its system A375 human melanoma xenografts. Briefly: Example 9 efficacy study Part I in A375 human melanoma xenografts (tumor volume, T/C, TGI). Conditions: 100 mg/kg, p.o., QD × 14 days. On the procedure: as §1
The A375 tumor cells were maintained in vitro in DMEM medium supplemented with […] and 1% Penicillin-Streptomycin at 37° C. in an atmosphere of 5% CO2 in air. The tumor cells were routinely subcultured twice weekly. The cells growing in an exponential growth phase were harvested and counted for tumor inoculation.
Each mouse was inoculated subcutaneously at the right flank with A375 cells (5×10^6) in 0.2 mL of PBS supplemented with Matrigel (PBS: Matrigel=1:1) for tumor development. Animals were grouped for the treatment when the average tumor volume reached 243 mm^3 for efficacy study part I and 413 mm^3 for the PK and PD study part I on day 15, and 271 mm^3 for efficacy part II and 443 mm^3 for the PK and PD part II on day 18, and 463 mm^3 for the PK and PD study part III on day 21. The test articles administration and the animal numbers in each group are shown in the above experimental tables.
Prior to the onset of drug treatment, mice were measured for tumor size in two dimensions using a caliper, and the tumor volume (mm^3) was calculated using formula V=0.5 a×b^2 where a and b are the long and short diameters of the tumor in mm, respectively. Mice were randomized into different treatment groups based on the tumor volume.
The major endpoint was to see if the tumor growth could be delayed or mice could be cured. The tumor size was then used for calculations of T/C value. The T/C value (in percent) is an indication of antitumor effectiveness; T and C are the mean volumes of the treated and control groups, respectively on specified day.
TGI was calculated for each group using the formula: TGI (%)=[1−(Ti−T0)/(Ci−C0)]×100; Ti is the average tumor volume of a treatment group on a given day, To is the average tumor volume of the treatment group on the day of treatment start, Ci is the average tumor volume of the vehicle control group on the same day with Ti, and C0 is the average tumor volume of the vehicle group on the day of treatment start.
For orientation: In xenograft studies the graft and the host belong to different species.

Data set [3] is described as follows: Example 8 pharmacokinetics assay for efficacy study (plasma, liver). The following applies: mouse, po, 35 mg/kg, p.o., QD × 21 days. On the procedure: For efficacy study, agents were tested in the A375 human melanoma xenografts model. Compound 8, Compound 26, and Compound 38 were administered to BALB/c nude mice bearing A375 xenografts from day 0 and dosed p.o. twice per day (BID). Compound 8 and Compound 26 were dosed at 10 mg/kg for 21 days. Compound 38 was dosed at 10 mg/kg for 10 days. The known BRAF inhibitor encorafenib was used as a positive control. encorafenib was administered from day 1 and dosed p.o. daily (QD) for 21 days and dosed at 35 mg/kg.
as §2, with “analysis. For non-termination plasma collection, blood samples were collected into the 1.5 mL Eppendorf tubes containing 3 μL of 0.5 M EDTA-K2. For termination plasma collection, the” for “analysis. The”, “the treatment and the” for “the treatment. The”
as §3
The harvested plasma and liver samples were processed for pharmacokinetics analysis by LC-MS/MS with a concentration range of 2.0~2000 ng/mL for encorafenib in plasma and liver homogenate, 10.0-10,000 ng/mL for Compound 8 and Compound 38 in plasma and liver homogenate, 20.0~20,000 ng/mL for Compound 26 in plasma and liver homogenate.

As usually defined, the T/C is the ratio of treated to control. `CC(C)(C)c1nc(-c2cccc(NS(=O)(=O)c3c(F)cccc3F)c2F)c(-c2ccnc(N)n2)s1` [Dabrafenib, dabrafenib, reference compound]: the concentration at 6 h in data set [1] (liver, read-out: Mean Concentration in Liver) was found to be 1240 ± 162 ng/g; in data set [1] (plasma, read-out: Mean Concentration in Plasma) it was 410 ± 58.2 ng/mL. Further, the “Tumor Volume Trace Over Time” value was determined as 243 ± 4 mm^3 in data set [2] (Day 0, Mean ± SEM); 370 ± 17 mm^3 in data set [2] (Day 3, Mean ± SEM); 445 ± 13 mm^3 in data set [2] (Day 7, Mean ± SEM); 475 ± 23 mm^3 in data set [2] (Day 10, Mean ± SEM); 521 ± 31 mm^3 in data set [2] (Day 14, Mean ± SEM). Besides, in data set [2] (Mean ± SEM), the “Tumor Size on PG-D14” value was found to be 521 ± 31 mm^3. The “TGI (Tumor Growth Inhibition)” value in data set [2] (PG-D14) is listed as 74.65%. In addition, in data set [2] (PG-D14, treated/control average tumor volume), the T/C is listed as 38.87%.
Regarding `COC(=O)N[C@@H](C)CNc1nccc(-c2cn(C(C)C)nc2-c2cc(Cl)cc(NS(C)(=O)=O)c2F)n1` [Encorafenib, encorafenib, reference compound], the concentration at 6 h in data set [3] (liver, read-out: Concentration in Liver (mean ± SEM)) is 186 ± 87.2 ng/g; in data set [3] (plasma, read-out: Concentration in Plasma (mean ± SEM)), 336 ± 150 ng/mL.
